Measurements published in publication PMC5021374, “An Arginine Finger Regulates the Sequential Action of Asymmetrical Hexameric ATPase in the Double-Stranded DNA Translocation Motor” (Molecular and Cellular Biology, 2016).

Columns and labels:
[1] = molecular target: T1, gp16 ATPase (ϕ29 motor ATPase gp16) (Bacillus phage phi29, UniProt P11014); assay: fluorescent phosphate binding protein assay of ATP hydrolysis; type: biochemical; settings: DNA-dependent ATPase; tag in this assay not stated
T1 construct: gene 16; full-length gp16 with tags: SUMO-gp16 (Trp fluorescence), His-gp16 (trypsin probing), eGFP-gp16 (EMSA; N-terminal eGFP); homohexamer, monomer/dimer mixture in solution
T1 sequence (P11014 1-332): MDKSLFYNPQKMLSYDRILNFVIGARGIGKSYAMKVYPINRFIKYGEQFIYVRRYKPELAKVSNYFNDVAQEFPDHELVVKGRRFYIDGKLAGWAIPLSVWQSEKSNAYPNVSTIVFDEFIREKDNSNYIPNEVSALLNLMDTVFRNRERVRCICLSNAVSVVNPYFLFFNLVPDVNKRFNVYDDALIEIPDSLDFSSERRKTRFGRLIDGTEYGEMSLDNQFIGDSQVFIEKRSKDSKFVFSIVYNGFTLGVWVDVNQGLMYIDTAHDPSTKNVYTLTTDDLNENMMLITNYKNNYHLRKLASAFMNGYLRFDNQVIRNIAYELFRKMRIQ

[2] = molecular target: T1, gp16 ATPase (ϕ29 motor ATPase gp16); assay: intrinsic tryptophan fluorescence (SUMO-gp16); also trypsin probing (His-gp16); type: binding; settings: 2 mM Tris pH 8.0, 0.005% Tween 20, 1.5% PEG 8000, 0.5% acetone; excitation 280 nm
[3] = molecular target: T1, gp16 ATPase (ϕ29 motor ATPase gp16); assay: EMSA with 33-bp Cy5-dsDNA (nucleotide-dependent DNA binding; indirect); settings: nonhydrolysable ATP analog; 33-bp Cy5-dsDNA present; ambient temperature, 20 min

Structure (SMILES) | fluorescent phosphate binding protein assay of ATP hydrolysis [1] | intrinsic tryptophan fluorescence (SUMO-gp16); also trypsin probing (His-gp16) [2] | EMSA with 33-bp Cy5-dsDNA (nucleotide-dependent DNA binding; indirect) [3]
Nc1ncnc2c1ncn2[C@@H]1O[C@H](COP(=O)(O)OP(=O)(O)OP(=O)(O)O)[C@@H](O)[C@H]1O [ATP] | a phosphate binding protein conjugated to a fluorescent probe ... was used to assay ATP hydrolysis | both assays indicated a conformational change in the gp16-ATP complex | –
Nc1ncnc2c1ncn2[C@@H]1O[C@H](COP(=O)(O)OP(=O)(O)OP(O)(O)=S)[C@@H](O)[C@H]1O [γ-S-ATP] | – | – | Stronger binding of gp16 to dsDNA was observed when gp16 was incubated with γ-S-ATP
